Experimental data: ChEMBL document CHEMBL1201862, “PubChem BioAssay data set” (2004)
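Tested at 5 concentrations; 48 h exposure; 96-well plates; endpoints linearly interpolated, else capped at highest concentration. The concentration for 50% growth inhibition is given as GI50.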 The source made the active and inactive calls. No stated cut-off is given here; in the data, active = GI50 up to about 1.1 µM and inactive = higher.

What was measured:
Experiment in all cases: growth of human tumour cells (NCI), 48 h
[1] = test system: LOX IMVI
[2] = test system: HT-29
[3] = test system: HCT-116
[4] = test system: IGROV-1
[5] = test system: OVCAR-8
[6] = test system: PC-3
[7] = test system: SNB-19
[8] = test system: Hs-578T
[9] = test system: MDA-N
[10] = test system: SF-295
[11] = test system: NCI/ADR-RES
[12] = test system: NCI-H23
[13] = test system: SK-OV-3
[14] = test system: SF-268
[15] = test system: RXF 393
[16] = test system: UACC-257
[17] = test system: SN12C
[18] = test system: KM12
[19] = test system: M14
[20] = test system: NCI-H522
[21] = test system: MDA-MB-231
[22] = test system: A549
[23] = test system: NCI-H460
[24] = test system: UACC-62
[25] = test system: SK-MEL-28
[26] = test system: HCC 2998
[27] = test system: OVCAR-4
[28] = test system: HOP-62
[29] = test system: SK-MEL-5
[30] = test system: CAKI-1
[31] = test system: ACHN
[32] = test system: SK-MEL-2
[33] = test system: U-251
[34] = test system: MOLT-4
[35] = test system: OVCAR-3
[36] = test system: COLO 205
[37] = test system: HL-60
[38] = test system: BT-549
[39] = test system: NCI-H226
[40] = test system: TK-10
[41] = test system: OVCAR-5
[42] = test system: HOP-92
[43] = test system: A498
[44] = test system: UO-31
[45] = test system: DU-145
[46] = test system: EKVX
[47] = test system: CCRF-CEM
[48] = test system: MCF7
[49] = test system: SW-620
[50] = test system: RPMI-8226
[51] = test system: Malme-3M
[52] = test system: SF-539
[53] = test system: MDA-MB-435
[54] = test system: SR
[55] = test system: K562
[56] = test system: SNB-75
[57] = test system: HCT-15
[58] = test system: T47D
[59] = test system: 786-0

Cc1c(C(=O)c2ccc(N)c3ccccc23)c2ccccc2n1CCN1CCOCC1
GI50 [1]: 22.5 µM (inactive)
GI50 [2]: 22.4 µM (inactive)
GI50 [3]: 19.5 µM (inactive)
GI50 [4]: 27.1 µM (inactive)
GI50 [5]: 31.2 µM (inactive)
GI50 [6]: 27.5 µM (inactive)
GI50 [7]: 21.5 µM (inactive)
GI50 [8]: 0.759 µM (active)
GI50 [9]: 16.3 µM (inactive)
GI50 [10]: 3.15 µM (inactive)
GI50 [11]: 23.4 µM (inactive)
GI50 [12]: 29.7 µM (inactive)
GI50 [13]: 1.97 µM (inactive)
GI50 [14]: 28.6 µM (inactive)
GI50 [15]: 24.2 µM (inactive)
GI50 [16]: 17.3 µM (inactive)
GI50 [17]: 33.8 µM (inactive)
GI50 [18]: 3.38 µM (inactive)
GI50 [19]: 24.5 µM (inactive)
GI50 [20]: 6.82 µM (inactive)
GI50 [21]: 12.6 µM (inactive)
GI50 [22]: 13.1 µM (inactive)
GI50 [23]: 3.4 µM (inactive)
GI50 [24]: 16.4 µM (inactive)
GI50 [25]: 43.5 µM (inactive)
GI50 [26]: 21.1 µM (inactive)
GI50 [27]: 3.1 µM (inactive)
GI50 [28]: 5.74 µM (inactive)
GI50 [29]: 15.5 µM (inactive)
GI50 [30]: 7.85 µM (inactive)
GI50 [31]: 31.4 µM (inactive)
GI50 [32]: 18.6 µM (inactive)
GI50 [33]: 2.77 µM (inactive)
GI50 [34]: 12 µM (inactive)
GI50 [35]: 15.7 µM (inactive)
GI50 [36]: 27.5 µM (inactive)
GI50 [37]: 22.3 µM (inactive)
GI50 [38]: 27.4 µM (inactive)
GI50 [39]: 32.1 µM (inactive)
GI50 [40]: 31 µM (inactive)
GI50 [41]: 25.9 µM (inactive)
GI50 [42]: 21.9 µM (inactive)
GI50 [43]: 29.3 µM (inactive)
GI50 [44]: 25.5 µM (inactive)
GI50 [45]: 31.1 µM (inactive)
GI50 [46]: 29.1 µM (inactive)
GI50 [47]: 2.9 µM (inactive)
GI50 [48]: 21.2 µM (inactive)
GI50 [49]: 26.1 µM (inactive)
GI50 [50]: 23.6 µM (inactive)
GI50 [51]: 18.3 µM (inactive)
GI50 [52]: 19.7 µM (inactive)
GI50 [53]: 2.02 µM (inactive)
GI50 [54]: > 32.8 µM (inactive)
GI50 [55]: 25.5 µM (inactive)
GI50 [56]: 2.62 µM (inactive)
GI50 [57]: 21 µM
GI50 [58]: 31.5 µM (inactive)
GI50 [59]: 28 µM (inactive)

Cc1cc(O)ccc1C1(c2ccc(F)cc2)OC(=O)c2ccccc21 (stereo unspecified)
GI50 [1]: 2.31 µM (inactive)
GI50 [2]: 5.09 µM (inactive)
GI50 [3]: 3.21 µM (inactive)
GI50 [4]: 2.21 µM (inactive)
GI50 [5]: 0.413 µM (active)
GI50 [6]: 2.24 µM (inactive)
GI50 [7]: 4.15 µM (inactive)
GI50 [8]: 0.263 µM (active)
GI50 [9]: 11.6 µM (inactive)
GI50 [10]: 3.48 µM (inactive)
GI50 [11]: 0.415 µM (active)
GI50 [12]: 0.787 µM (active)
GI50 [13]: 3.65 µM (inactive)
GI50 [14]: 7.73 µM (inactive)
GI50 [15]: 1.24 µM (inactive)
GI50 [16]: 12.6 µM (inactive)
GI50 [17]: 0.485 µM (active)
GI50 [19]: 13.6 µM (inactive)
GI50 [20]: 0.646 µM (active)
GI50 [21]: 7.01 µM (inactive)
GI50 [22]: 5.24 µM (inactive)
GI50 [23]: 15.6 µM (inactive)
GI50 [24]: 3.39 µM (inactive)
GI50 [25]: 13.1 µM (inactive)
GI50 [26]: 4.33 µM (inactive)
GI50 [27]: 0.289 µM (active)
GI50 [28]: 5.65 µM (inactive)
GI50 [29]: 11.3 µM (inactive)
GI50 [30]: 3.78 µM (inactive)
GI50 [31]: 4.17 µM (inactive)
GI50 [32]: 3.93 µM (inactive)
GI50 [33]: 15.5 µM (inactive)
GI50 [34]: 15.5 µM (inactive)
GI50 [35]: 0.236 µM (active)
GI50 [36]: 1.82 µM (inactive)
GI50 [37]: 34 µM (inactive)
GI50 [38]: 0.208 µM (active)
GI50 [39]: 2.38 µM (inactive)
GI50 [40]: 4.01 µM (inactive)
GI50 [41]: 6.64 µM (inactive)
GI50 [42]: 1.99 µM (inactive)
GI50 [43]: 13.6 µM (inactive)
GI50 [44]: 4 µM (inactive)
GI50 [45]: 4.61 µM (inactive)
GI50 [46]: 3.18 µM (inactive)
GI50 [47]: 28.3 µM (inactive)
GI50 [48]: 1.34 µM (inactive)
GI50 [49]: 12.9 µM (inactive)
GI50 [50]: 21.7 µM (inactive)
GI50 [51]: 12.7 µM (inactive)
GI50 [52]: 2.99 µM (inactive)
GI50 [53]: 13.8 µM (inactive)
GI50 [54]: 13.4 µM (inactive)
GI50 [55]: 6.87 µM (inactive)
GI50 [56]: 1.93 µM (inactive)
GI50 [57]: 3.18 µM
GI50 [58]: 0.318 µM (active)
GI50 [59]: 8.47 µM (inactive)

O=P1(Cc2ccccc2)c2ccccc2-c2ccccc21
GI50 [1]: 4.74 µM (inactive)
GI50 [2]: 2.37 µM (inactive)
GI50 [3]: 2.86 µM (inactive)
GI50 [4]: 2.33 µM (inactive)
GI50 [5]: 4.4 µM (inactive)
GI50 [6]: 2.82 µM (inactive)
GI50 [7]: 3.69 µM (inactive)
GI50 [8]: 7.05 µM (inactive)
GI50 [9]: 1.22 µM (inactive)
GI50 [10]: 5.98 µM (inactive)
GI50 [11]: > 100 µM (inactive)
GI50 [12]: 3.86 µM (inactive)
GI50 [13]: 15.7 µM (inactive)
GI50 [14]: 9.12 µM (inactive)
GI50 [15]: 9.42 µM (inactive)
GI50 [16]: 1.86 µM (inactive)
GI50 [17]: 14.2 µM (inactive)
GI50 [18]: 1.08 µM (active)
GI50 [19]: 3.67 µM (inactive)
GI50 [20]: 1.87 µM (inactive)
GI50 [21]: 20.7 µM (inactive)
GI50 [22]: 8.81 µM (inactive)
GI50 [23]: 4.04 µM (inactive)
GI50 [24]: 1.96 µM (inactive)
GI50 [25]: 4.13 µM (inactive)
GI50 [26]: 1.51 µM (inactive)
GI50 [27]: 11 µM (inactive)
GI50 [28]: 6.47 µM (inactive)
GI50 [29]: 1.46 µM (inactive)
GI50 [30]: 21.7 µM (inactive)
GI50 [31]: 11.2 µM (inactive)
GI50 [32]: 2.18 µM (inactive)
GI50 [33]: 3.88 µM (inactive)
GI50 [34]: 7.29 µM (inactive)
GI50 [35]: 1.06 µM (active)
GI50 [36]: 2.63 µM (inactive)
GI50 [37]: 1.04 µM (active)
GI50 [38]: 2.9 µM (inactive)
GI50 [39]: 5.77 µM (inactive)
GI50 [40]: 5 µM (inactive)
GI50 [41]: 12.1 µM (inactive)
GI50 [42]: 0.376 µM (active)
GI50 [43]: 7.85 µM (inactive)
GI50 [44]: 20.6 µM (inactive)
GI50 [45]: 7.38 µM (inactive)
GI50 [46]: 20.4 µM (inactive)
GI50 [47]: 6.04 µM (inactive)
GI50 [48]: 3.08 µM (inactive)
GI50 [49]: 3.61 µM (inactive)
GI50 [50]: 0.65 µM (active)
GI50 [51]: 2.15 µM (inactive)
GI50 [52]: 6.21 µM (inactive)
GI50 [53]: 0.764 µM (active)
GI50 [54]: 3.89 µM (inactive)
GI50 [55]: 1.41 µM (inactive)
GI50 [56]: 4.75 µM (inactive)
GI50 [57]: 37.2 µM
GI50 [58]: 0.0658 µM (active)
GI50 [59]: 7.94 µM (inactive)
